Measurements from US12616698B2, “Methods for reducing liver fat and for treating fatty liver disorders” (Corcept Therapeutics Incorporated, priority 2021, dated 2026).
Marks after values point to notes of the source that are not given here.

Test system: patients presumed to have NASH
Test: Phase 2a study in patients with presumed NASH: liver fat by MRI-PDFF
Type: in vivo, human
Excerpt: A Phase 2a, randomized, double-blind, placebo-controlled study (ClinicalTrials.gov Identifier: NCT03823703) was begun to assess the efficacy of two dose levels of miricorilant versus placebo in reducing liver fat in patients who were presumed to have non-alcoholic steatohepatitis (NASH), that presumption based on blood tests and noninvasive measures. Written informed consent was obtained before initiating any study-mandated procedures. The full study was planned to enroll approximately 120 patients, randomized 1:1:1 to receive daily 900 mg miricorilant:600 mg miricorilant: matching placebo.
Patients enrolled in the study were required to have consistent liver enzyme (ALT and AST) baseline measurements (established by two samples obtained at least 4 weeks and no more than six months apart), and a diagnosis of presumed NASH with fibrosis defined as meeting all of the following criteria: • a. Either: i) a historical liver biopsy within 1 year of Screening showing NASH, NAFLD Activity Score (NAS) greater than or equal to 4, and F1 to F3 fibrosis, or ii) an AST level greater than 17 U/L for women or AST level greater than 20 U/L for men AND a FibroScan liver stiffness measurement of greater than or equal to 8.5 kPa and a Controlled Attenuation Parameter (CAP) of greater than or equal to 300 dB/m in the 3 months prior to Screening or at Screening; • b. A MRI-PDFF with greater than or equal to 10% steatosis; and • c. The presence of two or more components of metabolic syndrome: type 2 diabetes treatment or fasting blood glucose greater than or equal to 126 mg/dL, BMI greater than or equal to 30 kg/m^2, hypertension treatment or blood pressure greater than or equal to 130/85, history of dyslipidemia, or waist circumference greater than or equal to 102 cm (40 in) in men and greater than or equal to 88 cm (35 in) in women.
Measures of the effectiveness of miricorilant versus placebo in reducing liver fat were assessed by magnetic resonance imaging (MRI). The change from baseline MRI measurements relative to MRI measurements taken following a course of daily miricorilant or placebo administration were assessed by magnetic resonance imaging-proton density fat fraction (MRI-PDFF). Additionally, effects of miricorilant may be assessed by measuring one or more of the following, either by comparing change from baseline after one or more days of miricorilant administration, or by comparing measurements in patients administered miricorilant versus patients administered placebo: change in liver fat assessed by MRI-PDFF; change in AST, ALT, and gamma-glutamyl transferase (GGT); change in propeptide of type III collagen (pro-C3); change in enhanced liver fibrosis (ELF) score and its components (hyaluronic acid, tissue inhibitor of metalloproteinases-1 [TIMP-1], type III procollagen [PIIINP]); change in ACTH, serum cortisol, and serum aldosterone (pharmacodynamic assessments); change in Homeostatic Model Assessment of Insulin Resistance (HOMA-IR); change in absolute body weight; and other measurements. […] For patients with diabetes, change in HbA1c and change in fasting blood glucose may be measured to assess the effects of miricorilant. Change in blood pressure may be measured in patients with high blood pressure to assess the effects of miricorilant. Pharmacokinetic (PK) parameters were estimated from steady state plasma concentrations of miricorilant.
Patients were randomized in a 1:1:1 ratio to 600 mg miricorilant, 900 mg miricorilant, or placebo. Study drug was administered once daily, orally with 8 oz (240 mL) of water, along with food. Patients were instructed to take a total of 6 tablets at approximately the same time each day. Those in the 600 miricorilant group took 4 miricorilant tablets and 2 placebo tablets. Those in the 900 miricorilant group took 6 miricorilant tablets. Those in the placebo group took 6 placebo tablets. […]

[1] = one patient, 600 mg per day, MRI-PDFF 26 days after cessation of study drug
[2] = patient 208-4020, 900 mg daily, 30 days on study drug, MRI 19 days after dose ended
[3] = patient 211-4002, 900 mg daily, 31 days on study drug, MRI 64 days after dose ended
[4] = patient 214-4007, 900 mg daily, 44 days on study drug, MRI 16 days after dose ended
[5] = patient 232-4016, 600 mg daily, 39 days on study drug, MRI 26 days after dose ended
[6] = patient 233-4018, 600 mg daily, 34 days on study drug, MRI 21 days after dose ended

With `O=c1[nH]c(=O)c(Cc2cccc(C(F)(F)F)c2)c([C@H]2CC[C@H](c3ccccc3)CC2)[nH]1` [miricorilant, (E)-6-(4-Phenylcyclohexyl)-5-(3-trifluoromethylbenzyl)-1H-pyrimidine-2,4-dione] the Liver fat levels (30 or 34 days of treatment, two of five patients administered miricorilant) was “normalized”, the Liver fat reductions (found in four patients (Table 3)) was “greater than 30%” and the “Resolution of fatty liver (MRI-PDFF <5%)” value (one patient (233-4018, 600 mg) of the four with liver fat decreases) was “*complete resolution of fatty liver (MRI-PDFF <5%)”. The “MRI PDFF value increase as compared to baseline” value [1] was 5, the “Relative increase in liver fat from baseline” value [1] was 27.9% and the “% Change in liver fat” value [2] was −65.3%. The “Change in MRI PDFF” value [2] was −11.5, the “MRI PDFF value” (patient 208-4020, 900 mg daily, 30 days on study drug, MRI 19 days after dose ended, screening value 17.6) was 6.1 and the “Relative change from baseline in % liver fat” value (patient 208-4020, 900 mg, 30 days on treatment) was −65.3%. For the same molecule, the “Liver fat Follow-up” value (patient 208-4020, 900 mg, 30 days on treatment, baseline 17.6) was 6.1%, the “% Change in liver fat” value [3] was −38.5% and the “Change in MRI PDFF” value [3] was −10.7. For the same molecule, the “MRI PDFF value” (patient 211-4002, 900 mg daily, 31 days on study drug, MRI 64 days after dose ended, screening value 27.8) was 17.1, the “Relative change from baseline in % liver fat” value (patient 211-4002, 900 mg, 31 days on treatment) was −38.5% and the “Liver fat Follow-up” value (patient 211-4002, 900 mg, 31 days on treatment, baseline 27.8) was 17.1%. For the same molecule, the “% Change in liver fat” value [4] was −47.0%, the “Change in MRI PDFF” value [4] was −13.3 and the “MRI PDFF value” (patient 214-4007, 900 mg daily, 44 days on study drug, MRI 16 days after dose ended, screening value 28.3) was 15.0. For the same molecule, the “Relative change from baseline in % liver fat” value (patient 214-4007, 900 mg, 44 days on treatment) was −47.0%, the “Liver fat Follow-up” value (patient 214-4007, 900 mg, 44 days on treatment, baseline 28.3) was 15.0% and the “% Change in liver fat” value [5] was “+27.9%”. For the same molecule, the “Change in MRI PDFF” value [5] was 5.0, the “MRI PDFF value” (patient 232-4016, 600 mg daily, 39 days on study drug, MRI 26 days after dose ended, screening value 17.9) was 22.9 and the “% Change in liver fat” value [6] was −73.8%. For the same molecule, the “Change in MRI PDFF” value [6] was −9.3, the “MRI PDFF value” (patient 233-4018, 600 mg daily, 34 days on study drug, MRI 21 days after dose ended, screening value 12.6) was 3.3 and the “Relative change from baseline in % liver fat” value (patient 233-4018, 600 mg, 34 days on treatment) was −73.8%. The “Liver fat Follow-up” value (patient 233-4018, 600 mg, 34 days on treatment, baseline 12.6) was 3.3* % and the “Mean liver fat content after treatment (FIG. 3C)” value (patient with the greatest reduction, 600 mg daily, baseline 12.6%) was 3.3%.
